According to PubChem BioAssay AID2305 (GlaxoSmithKline (GSK), 2010):
pIC50: −log10 of the molar value.

What follows are compounds tested on P. falciparum 3D7 growth, pLDH absorbance (assay: P. falciparum 3D7 growth inhibition, dose response, strain 3D7 (AID 2305)).
`OC(c1ccc(Cl)cc1)(c1ccc(Cl)cc1)C(c1ccc(Cl)cc1)n1ccnc1` (stereo not drawn) showed a pIC50 of 6.07.
Compound `Cc1ccc2nc(-c3cc(-c4ccc(OCc5ccccc5)cc4)cnc3N)[nH]c2c1` has a pIC50 of 5.77.
With `OCC(c1ccccc1)n1c(COc2ccc(Cl)cc2)nc2c(OCCCN3CCCCC3)cccc21` (stereo not drawn) the pIC50 was 6.04.
`CCCCC(=O)Nc1ccc(Nc2nc(C)cc(N3CCCC3)n2)cc1` was tested, and the pIC50 was 5.97.
`Cc1ccc(Nc2nc3cc(N(C)c4ccnc(Nc5cccc(CCS(C)(=O)=O)c5)n4)ccc3n2C)cc1` showed a pIC50 of 6.47.
`CN1CCN(c2cc(NC(=O)Nc3ccc(-c4ccncc4)c(Cl)c3)ccc2Br)CC1` gave a pIC50 of 6.05.
Work on `CCn1cc(CN2CCCC(C(=O)Nc3ccc(-c4nc5ccccc5[nH]4)cc3)C2)c(C)n1` (stereo not drawn) yielded a pIC50 of 6.10.
Work on `COc1ccc(CN2CCCN(Cc3cccc(NC(=O)c4ccc(-c5ccccc5)cc4)c3)CC2)cc1` yielded a pIC50 of 6.03.
In the case of `COc1ccc(Br)cc1/C=C/C(=O)Nc1ccc(C2CCCN(C)C2)cc1` (stereo not drawn), the pIC50 was 6.20.
With `O=C(C1CCCC1)N1CCOC(CCN2CCC(c3ccccc3)CC2)(c2ccc(Cl)c(Cl)c2)C1` (stereo not drawn) the pIC50 was 6.03.
For `CCCCCCCN1CC[C@@H](CCCc2ccnc3ccc(OCC4CCCNC4)cc23)[C@@H](CC)C1` (stereo partly drawn), the pIC50 was 6.21.
For `O=C(Nc1ccccc1)c1ccc(-c2cc3ccncc3cc2OC2CCNCC2)s1`, the pIC50 was 6.19.
For `CN(C)C(CNC(=O)c1cc(-c2ccncc2)c(-c2ccc(NC(=O)Nc3cccc(F)c3)cc2)o1)c1ccccc1` (stereo not drawn), the pIC50 was 6.11.
`CCOC(=O)CCCCOc1c(OC)cc(Cc2cnc(N)nc2N)cc1OC` was tested, and the pIC50 was 7.52.
`c1ccc(-n2cncn2)cc1` gave a pIC50 of 6.23.
With `O=C(NC1CC1)c1cnc(N2CCN(Cc3c(F)cccc3Cl)CC2)c(Cl)c1` the pIC50 was 6.04.
`Cc1cc(N[C@@H](Cc2ccccc2)C(=O)Nc2ccccc2)nc(NCCc2cccs2)n1` gave a pIC50 of 6.10.
`O=c1cc(NCCCNCc2cccc3c2OC(F)(F)O3)[nH]c2ccccc12` showed a pIC50 of 6.02.
In the case of `COCCN1CCC(CN(C)CC(C)(C)c2nc(-c3ccc(Cl)c(O)c3)c(-c3ccncc3)[nH]2)CC1`, the pIC50 was 5.99.
Compound `O=C(N[C@H]1CCN(Cc2ccc(OCCN3CCCC3)c(Cl)c2)C1)c1ccc(Cl)c(Cl)c1` has a pIC50 of 6.04.
`CC(C)c1cccc(C(C)C)c1NC(=O)NNC(=O)c1ccc(CCN2CCC(c3nc(COCC(F)(F)F)c(-c4ccc(F)cc4)o3)CC2)cc1` gave a pIC50 of 5.96.
`COc1cc(-c2ccccc2)ccc1C(=O)Nc1ccc2c(c1)N(C)CCC2` showed a pIC50 of 6.48.
Work on `CN1CCC(N2CCN(Cc3ccc(-c4cccc(-c5nc6ccc(F)cc6[nH]5)c4)cc3)CC2)CC1` yielded a pIC50 of 6.77.
`Cc1ccc(C2(CN3CCC(NC(=O)c4[nH]ncc4Cl)CC3)CCCCC2)cc1` gave a pIC50 of 6.49.
`O=C(CCc1cnc[nH]1)Nc1cccc(-c2ccc(-c3nc4ccccc4[nH]3)cc2)c1` was tested, and the pIC50 was 6.19.
`O=C(NCCCCN1CCC(c2ccc3c(c2OCc2ccccn2)CCCC3)CC1)c1ccc(NC(=O)c2ccc(Cl)cc2)cc1` was tested, and the pIC50 was 6.10.
`CCc1cn2c3c(cc(C(=O)N[C@@H](Cc4ccccc4)[C@H](O)CNCc4cccc(C)c4)cc13)N(C)S(=O)(=O)CC2` was tested, and the pIC50 was 6.60.
Work on `CCN(CC)CCCN(CCCN(CC)CC)c1cc(C)nc(Nc2ccc3cc(Br)ccc3c2)n1` yielded a pIC50 of 6.24.
Work on `CCc1c(CCNCCCCCCNCCc2ccc(OC)c(OC)c2C)ccc(OC)c1OC` yielded a pIC50 of 5.80.
With `Cc1ccc(CN2CCC(C(=O)Nc3ccc(-c4cc5ccccc5[nH]4)cc3)CC2)o1` the pIC50 was 5.85.
In the case of `O=C(CSc1nc(-c2ccccc2Cl)ns1)Nc1ccc2c(c1)OCO2`, the pIC50 was 6.00.
Work on `CC(C)CCNC(=O)c1cnc2c(O)cccc2c1Nc1cccc(NC(=O)c2ccc(F)cc2)c1` yielded a pIC50 of 6.04.
Compound `NC(N)=Nc1nc(-c2ccc(NC(=O)Nc3cccc(-c4csc(N=C(N)N)n4)c3)cc2)cs1` has a pIC50 of 6.00.
Work on `C[C@@H]1CN(c2cnn(Cc3ccc(NC(=O)Nc4ccc(-c5ccccc5)cc4)cc3)c(=O)c2Cl)C[C@H](C)N1` yielded a pIC50 of 6.43.
In the case of `COc1cccc(-c2cccc(CNC3CCN(CC4Cn5c(=O)ccc6ccc(F)c4c65)CC3)c2)c1` (stereo not drawn), the pIC50 was 6.03.
In the case of `CC(C)Sc1nncc(-c2cnnc(SC(C)C)n2)n1`, the pIC50 was 6.85.
For `CN(C)Cc1ccc(-c2ccc3c(Nc4ccc(Oc5ccccc5)cc4)ccnc3c2)o1`, the pIC50 was 6.10.
For `O=C(Nc1ccc2c(c1)CCC2)N[C@H]1CCN(Cc2ccc(OCCCN3CCCCC3)cc2)C1`, the pIC50 was 6.07.
Work on `COC(=O)CCCOc1cc(Cc2cnc(N)nc2N)cc(OC)c1OC` yielded a pIC50 of 6.11.
`CC(C)CC(=O)N1CCNC[C@@H]1C(=O)NCc1ccc(Cl)c(Cl)c1` was tested, and the pIC50 was 6.02.
Work on `COc1cc(NC(=O)N2CCOC(CCN3CCC4(CCc5ccccc54)CC3)(c3ccc(Cl)c(Cl)c3)C2)cc(OC)c1OC` (stereo not drawn) yielded a pIC50 of 6.80.
Work on `O=C(COc1ccccc1)Nn1cnc2ccccc21` yielded a pIC50 of 5.98.
`CCN(CC)CCCN1CCN(C(=O)c2cccc(-c3noc(C(F)(F)F)n3)c2)CC1` showed a pIC50 of 6.82.
`Cc1cc2ncn(-c3nccc(NCc4ccc(F)c(C)c4)n3)c2cc1C` gave a pIC50 of 6.00.
`CCCc1cc(Cc2cnc(N)nc2N)ccc1OCCCCCC(=O)O` showed a pIC50 of 6.24.
`Cc1cccc2[nH]c(-c3ccc(-c4ccc(CNCc5cnn(-c6ccccc6)n5)cc4)cc3)nc12` was tested, and the pIC50 was 6.37.
With `OCCCCCCNc1ccnc2[nH]c3ccc(I)cc3c12` the pIC50 was 5.97.
Work on `COc1ccc2nc(N(CCCn3ccnc3)C(=O)C=Cc3cccs3)sc2c1` yielded a pIC50 of 5.98.
In the case of `COc1ccccc1-c1cccc(-c2cccc(NC(=O)c3ccc([N+](=O)[O-])o3)c2)n1`, the pIC50 was 6.22.
Compound `O=C(Nc1ccc(OC2CCN(Cc3ccco3)CC2)c(Cl)c1)c1ccc2ncccc2c1` has a pIC50 of 6.02.
Work on `CC(C)(C)c1ccc(NC(=O)N[C@@H]2CCN(c3ccnc4ccccc34)C2)cc1` yielded a pIC50 of 6.46.
`N#Cc1ccccc1S(=O)(=O)N1CCCC(CNC(=O)[C@H](CC2CCCCC2)NC(=O)c2cc3ccccc3s2)C1` (stereo partly drawn) was tested, and the pIC50 was 6.29.
`N#Cc1ccc(CN2CCC(Oc3ccc(NC(=O)c4ccco4)cc3Cl)CC2)cc1` showed a pIC50 of 6.42.
With `CCOc1ccccc1CNc1nccc(NCc2ccccc2OC)n1` the pIC50 was 5.83.
Compound `CCNC(=O)N1CCN(c2nc(-c3ccccc3)nc(COC)c2Cc2ccc(C)cc2)CC1` has a pIC50 of 6.00.
`N=C(N)c1cccc(-c2cc(-c3cccc(C(=N)N)c3)on2)c1` was tested, and the pIC50 was 7.05.
Compound `CN(CCN)Cc1cccc(-c2ccc(-c3nc4ccc(C(F)(F)F)cc4[nH]3)s2)c1` has a pIC50 of 6.00.
`COc1ccc(C(O)CNC(C)CCc2ccccc2)cc1C(F)(F)F` (stereo not drawn) was tested, and the pIC50 was 7.15.
`Cc1cccc(CN2CCC(Oc3ccc(NC(=O)c4cccs4)cc3Cl)CC2)n1` gave a pIC50 of 6.08.
Compound `O=C(Nc1cccc(-c2cccc(-c3nc4ccc(C(F)(F)F)cc4[nH]3)c2)c1)c1ccncc1` has a pIC50 of 6.70.
`C=C[C@H]1CN2CC[C@H]1C[C@@H]2[C@@H](O)c1ccnc2ccc(OC)cc12` gave a pIC50 of 6.92.
`Fc1cccc(Cl)c1-c1nc(NCCC(c2ccccc2)c2ccccc2)no1` was tested, and the pIC50 was 6.26.
Work on `CN1CCCN(Cc2cccc(-c3ccc(NS(=O)(=O)c4cccc5cccnc45)cc3)c2)CC1` yielded a pIC50 of 6.02.
`CN(C)c1cccc2c1nc(-c1ccc3c(c1)CCO3)n2CCNCc1ccccc1` was tested, and the pIC50 was 6.14.
`CN1CCCC1CCOc1ccc2c(c1)N(C(=O)Nc1cc(Br)cc(C(F)(F)F)c1)CC2` (stereo not drawn) showed a pIC50 of 6.60.
With `O=C(Cc1cccc(Cl)c1)N1CCc2cc3nccc(N4CCN5CCC[C@H]5C4)c3cc21` the pIC50 was 6.07.
For `Cc1ccc(Nc2nc(NN=Cc3cccc(O)c3)nc(Nc3ccc([N+](=O)[O-])cc3)n2)cc1C`, the pIC50 was 6.13.
`CC(C)(C)c1ccc(CN2CCCCC(NC(=O)c3cc(-c4ccccc4Cl)cs3)C2)cc1` (stereo not drawn) gave a pIC50 of 5.95.
In the case of `FC(F)(F)c1cccc(Nc2nc3ccccc3nc2Nc2cccc(C(F)(F)F)c2)c1`, the pIC50 was 6.85.
For `CNCc1ccc(-c2cccc(CNCc3ccc(-c4ccccc4)cc3)c2)c(C(=O)OC)c1`, the pIC50 was 6.01.
`CC(C)c1sc(-c2ccc(C(C)(C)C)cc2)nc1C(=O)NCCCN1CCCC1=O` was tested, and the pIC50 was 6.17.
In the case of `c1cc(CN2CCCCC2)cc(OCCCNc2ccnc3ccccc23)c1`, the pIC50 was 6.37.
`CN(C)CCN(C)Cc1ccc(-c2ccc(NC(=O)c3cccc(Cl)c3)cc2)cc1` was tested, and the pIC50 was 5.94.
Work on `CC(C)(C)OC(=O)n1cc(C2CCN(CCCC34CCCc5cccc(c53)NC4=O)CC2)c2ccncc21` (stereo not drawn) yielded a pIC50 of 6.06.
Work on `COc1ccc(-c2cc(C(=O)N[C@@H](CC3CCCCC3)C(=O)NCCN3CCCCC3)ccc2O)cc1` yielded a pIC50 of 6.02.
Compound `CC[C@H]1CN2CC[C@H]1C[C@H]2[C@H](O)c1cc(N2CCC3CCCCC3C2)nc2ccc(OC)cc12` (stereo partly drawn) has a pIC50 of 6.77.
`Cc1ccccc1C1CCN(c2ccc(C(=O)Nc3ccccc3)cn2)CC1` was tested, and the pIC50 was 6.48.
`N#Cc1cccc(Nc2nccc(Nc3ccc(Oc4ccccc4)cc3)n2)c1` showed a pIC50 of 6.08.
`O=S(=O)(c1ccccc1Cl)N1CCCCC(c2ccc(C(F)(F)F)cc2)=N1` showed a pIC50 of 6.03.
`COc1ccc2nccc([C@@H](O)CN3CCC(NC(=O)c4ccc(Oc5ccccc5)cc4)CC3)c2c1` gave a pIC50 of 5.86.
`O=C(C1CCN(C(c2ccccc2)c2ccc(Cl)c(Cl)c2)CC1)N1CC=CC1` (stereo not drawn) was tested, and the pIC50 was 6.14.
In the case of `COc1cccc(C(=O)NC(NC(=S)Nc2ccc(OC)cc2[N+](=O)[O-])C(Cl)(Cl)Cl)c1` (stereo not drawn), the pIC50 was 6.12.
For `COc1cc2c(c(OC)c1[N+](=O)[O-])C=CC1(O2)N(C)c2ccc([N+](=O)[O-])cc2C1(C)C` (stereo not drawn), the pIC50 was 6.04.
For `CC(C)(CNCc1ccc(OC(F)(F)F)cc1)c1nc(-c2ccc(Cl)c(O)c2)c(-c2ccncc2)[nH]1`, the pIC50 was 6.26.
`CCCCCCCN1CC[C@@H](CCC(O)c2ccnc3ccc(OC)cc23)[C@@H](CC)C1` (stereo partly drawn) was tested, and the pIC50 was 6.12.
Compound `CCCCC/C=C/C(=O)NC1CCC(CN2CCC(c3c[nH]c4ccccc34)CC2)CC1` (stereo not drawn) has a pIC50 of 6.01.
Compound `S=C(NN=Cc1ccccn1)Nc1ccc2c(c1)OCCO2` has a pIC50 of 5.98.
`Cn1cc(CCNc2ccnc(NCCc3coc4ccccc34)n2)c2ccccc21` was tested, and the pIC50 was 5.97.
`CC(=O)N(Cc1ccc(-c2ccc(CNCCc3ccccc3)cc2)cc1)C1CCN(Cc2ccccc2)CC1` was tested, and the pIC50 was 6.03.
`CC(C)CCNCc1ccc(OCc2cccc(COc3ccc(CNCCC(C)C)cc3I)c2)c(I)c1` was tested, and the pIC50 was 6.35.
Work on `COc1c(C2CCN(CCCCNC(=O)C=Cc3cc4cc(Cl)ccc4o3)CC2)ccc2c1CCCC2` yielded a pIC50 of 5.88.
Compound `Cc1cc(NN=Cc2ccc(F)cc2)c2cc(F)ccc2n1` has a pIC50 of 6.19.
Work on `N=C(N)c1ccc2[nH]c(-c3cc4cc(C(=N)N)ccc4o3)cc2c1` yielded a pIC50 of 6.74.
`CCOc1cc(C(C)C)ccc1C1CCN(CCCCNC(=O)c2ccc(NC(=O)c3ccc(Cl)cc3)cc2)CC1` gave a pIC50 of 6.09.
In the case of `CCCc1ccccc1OCC(O)CN(C1CCCC1)C1CCCC1` (stereo not drawn), the pIC50 was 6.33.
`CCCCCc1cnc2nc(N)nc(N)c2c1C` was tested, and the pIC50 was 6.68.
In the case of `N#Cc1c(F)cc(N2CCC(NCC[C@H](N)Cc3ccc(F)c(F)c3)CC2)cc1F`, the pIC50 was 6.07.
In the case of `COc1cc(Nc2nccc(-c3c(-c4cccc(NC(=O)c5c(F)cccc5F)c4)nn4ccccc34)n2)cc(OC)c1OC`, the pIC50 was 7.10.
